Assay results published in US8394834B2, “Pyrrolidines as NK3 receptor antagonists” (Hoffman-La Roche Inc., priority 2009, dated 2013).

Key:
schizophrenia = conditions: phase II trial, cited from earlier work
[1] = target: T1, recombinant human NK3 receptor (Homo sapiens, UniProt P29371); experiment: [3H]SR142801 competition binding assay; conditions: hNK3 receptor, membranes from HEK293 cells transiently expressing the receptor, [3H]SR142801 radioligand
T1 construct: expressed in transfected cells; host or cells: HEK293 cells (transient expression), membranes
T1 sequence (P29371 1-465): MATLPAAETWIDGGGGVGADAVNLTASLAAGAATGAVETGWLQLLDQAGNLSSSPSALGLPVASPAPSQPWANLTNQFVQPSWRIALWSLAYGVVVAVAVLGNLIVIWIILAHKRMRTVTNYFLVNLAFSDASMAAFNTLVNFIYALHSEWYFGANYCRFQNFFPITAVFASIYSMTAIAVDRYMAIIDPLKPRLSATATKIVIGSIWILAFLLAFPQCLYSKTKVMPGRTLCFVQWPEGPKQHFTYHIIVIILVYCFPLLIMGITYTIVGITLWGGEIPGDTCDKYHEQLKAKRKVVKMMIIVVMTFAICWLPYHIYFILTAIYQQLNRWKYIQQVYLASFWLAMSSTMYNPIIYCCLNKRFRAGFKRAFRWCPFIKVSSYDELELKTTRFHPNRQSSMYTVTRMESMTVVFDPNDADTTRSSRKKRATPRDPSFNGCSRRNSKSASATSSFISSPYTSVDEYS
Protocol: [^3H]SR142801 Competition Binding Assay
hNK3 receptor binding experiment were performed using [^3H]SR142801 (Catalog No. TRK1035, specific activity: 74.0 Ci/mmol, Amersham, GE Healthcare UK limited, Buckinghamshire, UK) and membrane isolated from HEK293 cells transiently expressing recombinant human NK3 receptor. After thawing, the membrane homogenates were centrifuged at 48,000×g for 10 min at 4° C., the pellets were resuspended in the 50 mM Tris-HCl, 4 mM MnCl2, 1 μM phosphoramidon, 0.1% BSA binding buffer at pH 7.4 to a final assay concentration of 5 μg protein/well. For inhibition experiments, membranes were incubated with [^3H]SR142801 at a concentration equal to KD value of radioligand and 10 concentrations of the inhibitory compound (0.0003-10 μM) (in a total reaction volume of 500 μl) for 75 min at room temperature (RT). At the end of the incubation, membranes were filtered onto unitfilter (96-well white microplate with bonded GF/C filter preincubated 1 h in 0.3% PEI+0.3% BSA, Packard BioScience, Meriden, Conn.) with a Filtermate 196 harvester (Packard BioScience) and washed 4 times with ice-cold 50 mM Tris-HCl, pH 7.4 buffer. Nonspecific binding was measured in the presence of 10 μM SB222200 for both radioligands. The radioactivity on the filter was counted (5 min) on a Packard Top-count microplate scintillation counter with quenching correction after addition of 45 μl of microscint 40 (Can berra Packard S. A., Zürich, Switzerland) and shaking for 1 h. Inhibition curves were fitted according to the Hill equation: […]), where nH=slope factor using Excel-fit 4 software (Microsoft). IC50 values were derived from the inhibition curve and the affinity constant (Ki) values were calculated using the Cheng-Prussoff equation Ki=IC50/(1+[L]/KD) where [L] is the concentration of radioligand and KD is its dissociation constant at the receptor, derived from the saturation isotherm. All experiments were performed in duplicate and the mean±standard error (SEM) of the individual Ki values was calculated.

Ki [1] [nM]	Structure (SMILES)	activity on positive symptoms of schizophrenia (schizophrenia; altered behaviour, delusion, hallucinations, extreme emotions, excited motor activity, incoherent speech)	activity in the treatment of negative symptoms (schizophrenia; depression, anhedonia, social isolation or memory and attention deficits)
–	CC(=O)N(C)C1(c2ccccc2)CCN(CCC[C@]2(c3ccc(Cl)c(Cl)c3)CCCN(C(=O)c3ccccc3)C2)CC1 [SR 142,801, Osanetant]	active	inactive
0.4	CC(=O)c1ccc(N2CCC(C(=O)N3C[C@H]([C@H](C)Oc4ccc(Cl)cn4)[C@@H](c4ccc(Cl)cc4)C3)CC2)cc1 [Example 5, 1-[4-(4-{(3S,4R)-3-(4-Chloro-phenyl)-4-[1-((S)-5-chloro-pyridin-2-yloxy)-ethyl]-pyrrolidine-1-carbonyl}-piperidin-1-yl)-phenyl]-ethanone]	–	–
